Test systems include M19-MEL; NCI/ADR-RES; MDA-MB-231; Hs-578T; BT-549; PC-3; LXFL 529.
Holding throughout (experiment): growth of human tumour cells (NCI), 48 h

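These data come from cells grown in 96-well plates and exposed to compound for 48 hours at five concentrations. GI50 marks 50% less growth.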 The source made the active and inactive calls. No stated cut-off is given here; in the data, active = GI50 up to about 1.1 µM and inactive = higher. A value given as a limit tells only on which side of the number the result lay.

`CSc1nc2c(ncn2C2OC(CO)C(O)C(O)C2O)c(=O)n1C` (configuration not stated): the GI50 in the experiment on M19-MEL and in the experiment on NCI/ADR-RES was > 100 µM (inactive) each time.

As to `Cc1nn(C(=O)Cc2ccccc2)c2c1C(c1ccc3ccccc3c1O)SC(=N)N2` (configuration not stated), the GI50 in the experiment on MDA-MB-231, in the experiment on Hs-578T, in the experiment on BT-549 and in the experiment with PC-3 was > 100 µM (inactive) each time.

For the compound `[O-]c1c2c(nn1-c1ccc(F)cc1)c1ccccc1c[n+]2Cc1ccccc1`, in the experiment on LXFL 529, the GI50 is 0.448 µM (active).

Values taken from ChEMBL document CHEMBL1201862, “PubChem BioAssay data set” (2004).
